Measured values from patent US20100298141A1, “SUBSTITUTED PYRIDINE N-OXIDE HERBICIDES” (E. I. DU PONT DE NEMOURS AND COMPANY, priority 2007, published 2010).

How the values were obtained:
[1] = test system: spanishneedles; test: Test F preemergence test; type: in vivo, Bidens bipinnata; settings: scale 0 to 100
Description: (§1) Seeds of plant species selected from bermudagrass (Cynodon dactylon), Surinam grass (Brachiaria decumbens), large crabgrass (Digitaria sanguinalis), green foxtail (Setaria viridis), goosegrass (Eleusine indica), johnsongrass (Sorghum halepense), kochia (Kochia scoparia), pitted morningglory (Ipomoea lacunosa), purple nutsedge (Cyperus rotundus), common ragweed (Ambrosia elation), mustard (Brassica nigra), guineagrass (Panicum maximum), […] (Paspalum dilatatum), barnyardgrass (Echinochloa crus-galli), southern sandbur (Cenchrus echinatus), common sowthistle (Sonchus oleraceous), prickly […] spinosa), Italian ryegrass (Lolium multiflorum), common purslane (Portulaca oleracea), broadleaf signalgrass (Brachiaria platyphylla), common groundsel (Senecio vulgaris), common chickweed (Stellaria media), Virginia dayflower (Commelina virginica), annual bluegrass (Poa annua), naked crabgrass (Digitaria nuda), […] cochinchinensis), quackgrass (Elytrigia repens), Canada horseweed (Conyza canadensis), field bindweed (Convolvulus arvensis), […] (Bidens bipinnata), common mallow (Malva sylvestris), Russian thistle (Salsola kali), and sugarcane (Saccharum officinarum) were planted and treated preemergence with test chemicals formulated in a non-phytotoxic solvent mixture which included a surfactant. At a different time, sugarcane was treated with postemergence applications of some of the test chemicals formulated in the same manner. Plants were approximately 3- to 4-leaf stage for the postemergence treatments. Treated plants and controls were maintained in a greenhouse for 14 to 21 days, after which time all species were compared to controls and visually evaluated. […] A dash (-) response means no test result.

[2] = test system: common chickweed; test: Test F preemergence test; type: in vivo, Stellaria media; settings: scale 0 to 100
Description: as §1

[3] = test system: canarygrass; test: Test C postemergence test; type: in vivo, Phalaris minor; settings: for Plant response rating, Canarygrass: scale 0 to 100, 0 no effect, 100 complete control
Experimental: (§2) At the same time, plants selected from these crop and weed species and also winter barley (Hordeum vulgare), canarygrass (Phalaris minor), and chickweed (Stellaria media) were treated with postemergence applications of some of the test chemicals formulated in the same manner. Plants ranged in height from 2 to 18 cm (1- to 4-leaf stage) for postemergence treatments. […] At time of treatment, test pots were flooded to 3 cm above the soil surface, treated by application of test compounds directly to the paddy water, and then maintained at that water depth for the duration of the test. Treated plants and controls were maintained in a greenhouse for 13 to 15 days, after which time all species were compared to controls and visually evaluated. […] A dash (-) response means no test result.

[4] = test system: winter barley; test: Test C postemergence test; type: in vivo, Hordeum vulgare; settings: for Plant response rating, Barley: scale 0 to 100, 0 no effect, 100 complete control
Experimental: as §2

[5] = test system: chickweed; test: Test C postemergence test; type: in vivo, Stellaria media; settings: for Plant response rating, Chickweed: scale 0 to 100, 0 no effect, 100 complete control
Experimental: as §2

[6] = test system: Canada horseweed; test: Test F preemergence test; type: in vivo, Conyza canadensis; settings: scale 0 to 100
Description: as §1

[7] = test system: common sowthistle; test: Test F preemergence test; type: in vivo, Sonchus oleraceous; settings: scale 0 to 100
Description: as §1

Row | Compound | Spanishneedles plant response rating ([1]; 125 g ai/ha, preemergence) | Plant response rating, Spanishneedles ([1]; Preemergence, 31 g ai/ha) | Plant response rating (0 to 100), Canarygrass ([3]; 31 g ai/ha) | Plant response rating, Canarygrass ([3]; 62 g ai/ha) | Plant response rating, Canarygrass ([3]; 125 g ai/ha) | Plant response rating, Canarygrass ([3]; 250 g ai/ha) | Plant response rating (0 to 100), Barley ([4]; 31 g ai/ha) | Plant response rating, Barley ([4]; 62 g ai/ha) | Plant response rating, Barley ([4]; 125 g ai/ha) | Plant response rating, Barley ([4]; 250 g ai/ha) | Plant response rating (0 to 100), Chickweed ([5]; 31 g ai/ha) | Plant response rating, Chickweed ([5]; 62 g ai/ha) | Plant response rating, Chickweed ([5]; 125 g ai/ha) | Plant response rating, Chickweed ([5]; 250 g ai/ha) | Horseweed plant response rating ([6]; 125 g ai/ha, preemergence) | Plant response rating, Horseweed ([6]; Preemergence, 31 g ai/ha) | other results
1 | CC(Oc1c(C[S+]([O-])c2ccc(Cl)c[n+]2[O-])c(C(F)(F)F)nn1C)C(F)(F)F (stereo not drawn) [Compound 87] | 100 | 0 |  |  |  |  |  |  |  |  |  |  |  |  |  |  | Plant response rating, Spanishneedles ([1]; 16 g ai/ha, preemergence): 0; Plant response rating, Spanishneedles ([1]; Preemergence, 62 g ai/ha): 100; Plant response rating, Chickweed ([2]; 16 g ai/ha, preemergence): 0; Chickweed plant response rating ([2]; 125 g ai/ha, preemergence): 100; Plant response rating, Chickweed ([2]; Preemergence, 62 g ai/ha): 100; Plant response rating, Chickweed ([2]; Preemergence, 31 g ai/ha): 100
2 | [O-][n+]1cc(Cl)ccc1[S+]([O-])Cc1c(C(F)(F)F)nn(CC(F)(F)F)c1Cl (stereo not drawn) [Compound 47] |  |  | 0 | 0 | 0 | 40 | 0 | 0 | 10 | 45 | 0 | 0 | 0 | 0 |  |  | 
3 | Cn1nc(OC(F)F)c(CS(=O)(=O)c2cccc[n+]2[O-])c1C(F)(F)F [Compound 80] | 0 | 0 |  |  |  |  |  |  |  |  |  |  |  |  | 100 | 0 | Plant response rating, Horseweed ([6]; 16 g ai/ha, preemergence): 0; Horseweed plant response rating ([6]; 62 g ai/ha, Preemergence): 100; Plant response rating, Spanishneedles ([1]; 16 g ai/ha, preemergence): 0; Plant response rating, Spanishneedles ([1]; Preemergence, 62 g ai/ha): 0
4 | Cn1nc(C(F)(F)F)c(CS(=O)(=O)c2cccc[n+]2[O-])c1OCC(F)(F)F [Compound 29] | 25 | 0 |  |  |  |  |  |  |  |  |  |  |  |  |  |  | Spanishneedles plant response rating ([1]; 62 g ai/ha, Preemergence): 0
5 | CCn1nc(C(F)(F)F)c(C[S+]([O-])c2cccc[n+]2[O-])c1OCC(F)(F)F (racemic) [Compound 65] |  |  | 0 | 20 | 20 | 25 | 0 | 20 | 40 | 40 | 30 | 40 | 80 | 100 |  |  | 
6 | CCn1nc(C(F)(F)F)c(C(C)S(=O)(=O)c2cccc[n+]2[O-])c1OCC(F)(F)F (stereo not drawn) [Compound 69] |  |  | 0 | 0 | 0 | 10 | 0 | 0 | 20 | 25 | 0 | 0 | 0 | 40 |  |  | 
7 | Cn1nc(C(F)(F)F)c(C[S+]([O-])c2cccc[n+]2[O-])c1OCC(F)(F)C(F)(F)F (stereo not drawn) [Compound 78] |  |  | 0 | 0 | 0 | 0 | 0 | 0 | 0 | 0 | 0 | 0 |  |  |  |  | 
8 | Cc1cc[n+]([O-])c(S(=O)(=O)Cc2c(C(F)(F)F)nn(C)c2OCC(F)(F)F)c1 [Compound 31] |  | 100 |  |  |  |  |  |  |  |  |  |  |  |  |  |  | Plant response rating, Spanishneedles ([1]; 16 g ai/ha, preemergence): 0; Plant response rating, Spanishneedles ([1]; Preemergence, 62 g ai/ha): 100
9 | CC(Oc1c(C[S+]([O-])c2cccc[n+]2[O-])c(C(F)(F)F)nn1C)C(F)(F)F (stereo not drawn) [Compound 77] |  |  |  |  |  |  |  |  |  |  |  |  |  |  | 100 | 50 | Plant response rating, Horseweed ([6]; 16 g ai/ha, preemergence): 0; Horseweed plant response rating ([6]; 62 g ai/ha, Preemergence): 98; Plant response rating, Sowthistle ([7]; 16 g ai/ha, preemergence): 0; Sowthistle plant response rating ([7]; 125 g ai/ha, preemergence): 50; Plant response rating, Sowthistle ([7]; Preemergence, 31 g ai/ha): 0
10 | Cc1cc[n+]([O-])c(S(=O)(=O)Cc2c(C(F)(F)F)nn(C)c2Cl)c1 [Compound 19] |  |  |  |  |  |  |  |  |  |  |  |  |  |  | 100 | 0 | Horseweed plant response rating ([6]; 62 g ai/ha, Preemergence): 0; Plant response rating, Horseweed ([6]; Preemergence, 16 g ai/ha): 0; Sowthistle plant response rating ([7]; 62 g ai/ha, Preemergence): 80; Sowthistle plant response rating ([7]; 125 g ai/ha, preemergence): 95; Plant response rating, Sowthistle ([7]; Preemergence, 31 g ai/ha): 0; Chickweed plant response rating ([2]; 62 g ai/ha, Preemergence): 0; Chickweed plant response rating ([2]; 125 g ai/ha, preemergence): 75; Plant response rating, Chickweed ([2]; Preemergence, 16 g ai/ha): 0; Plant response rating, Chickweed ([2]; Preemergence, 31 g ai/ha): 0
11 | Cn1nc(C(F)(F)C(F)(F)F)c(C[S+]([O-])c2cccc[n+]2[O-])c1OCC(F)(F)F (stereo not drawn) [Compound 79] |  |  | 0 |  | 0 | 0 | 0 |  | 0 | 0 | 70 |  | 100 | 100 |  |  | Plant response rating (0 to 100), Canarygrass ([3]; 62 g ai/ha): 0; Plant response rating (0 to 100), Barley ([4]; 62 g ai/ha): 0; Plant response rating (0 to 100), Chickweed ([5]; 62 g ai/ha): 100
12 | CC(Oc1c(CS(=O)(=O)c2cccc[n+]2[O-])c(C(F)(F)F)nn1C)C(F)(F)F (stereo not drawn) [Compound 82] |  |  | 0 |  | 0 | 0 | 0 |  | 0 | 0 | 0 |  | 0 | 0 |  |  | Plant response rating (0 to 100), Canarygrass ([3]; 62 g ai/ha): 0; Plant response rating (0 to 100), Barley ([4]; 62 g ai/ha): 0; Plant response rating (0 to 100), Chickweed ([5]; 62 g ai/ha): 0
13 | Cn1nc(C(F)(F)F)c(C[S+]([O-])c2cccc[n+]2[O-])c1OCC(F)(F)F (racemic) [Compound 28] | 100 | 80 |  |  |  |  |  |  |  |  |  |  |  |  |  |  | Spanishneedles plant response rating ([1]; 62 g ai/ha, Preemergence): 100
14 | CC(c1c(C(F)(F)F)nn(C)c1Cl)S(=O)(=O)c1ccc(Cl)c[n+]1[O-] (racemic) [Compound 40] |  |  | 0 | 0 | 0 | 30 | 0 | 0 | 0 | 0 | 0 | 0 | 0 | 0 |  |  | 
15 | CCn1nc(C(F)(F)F)c(CS(=O)(=O)c2cccc[n+]2[O-])c1OCC(F)(F)F [Compound 63] |  |  |  |  |  |  |  |  |  |  |  |  |  |  | 100 | 98 | Plant response rating, Horseweed ([6]; 16 g ai/ha, preemergence): 0; Horseweed plant response rating ([6]; 62 g ai/ha, Preemergence): 98
16 | Cn1nc(C(F)(F)F)c(C[S+]([O-])c2ccc(Cl)c[n+]2[O-])c1OCC(F)F (stereo not drawn) [Compound 85] | 100 | 50 |  |  |  |  |  |  |  |  |  |  |  |  | 100 | 100 | Plant response rating, Horseweed ([6]; 16 g ai/ha, preemergence): 25; Plant response rating, Horseweed ([6]; Preemergence, 62 g ai/ha): 100; Plant response rating, Spanishneedles ([1]; 16 g ai/ha, preemergence): 50; Plant response rating, Spanishneedles ([1]; Preemergence, 62 g ai/ha): 100; Plant response rating, Sowthistle ([7]; 16 g ai/ha, preemergence): 0; Sowthistle plant response rating ([7]; 125 g ai/ha, preemergence): 100; Plant response rating, Sowthistle ([7]; Preemergence, 62 g ai/ha): 100; Plant response rating, Sowthistle ([7]; Preemergence, 31 g ai/ha): 0
